Test results as given in ChEMBL document CHEMBL3425491, “Development of novel ACK1/TNK2 inhibitors using a fragment-based approach” (J Med Chem, 2015).
In brackets after ≈: the same amount, converted by molar mass. Activity calls are given as the source filed them. No cut-off for these calls is given here.

How the values were obtained:
Activated CDC42 kinase 1 [1] = target: T1, Activated CDC42 kinase 1 (Homo sapiens, UniProt Q07912); assay: Inhibition of human ACK1 kinase activity using biotinylated ATGRYYAMKIL - AKT peptide substrate assessed as phosphorylation at 10 uM by ELISA; format: single protein
Target sequence in this assay (Q07912 whole entry, looked up): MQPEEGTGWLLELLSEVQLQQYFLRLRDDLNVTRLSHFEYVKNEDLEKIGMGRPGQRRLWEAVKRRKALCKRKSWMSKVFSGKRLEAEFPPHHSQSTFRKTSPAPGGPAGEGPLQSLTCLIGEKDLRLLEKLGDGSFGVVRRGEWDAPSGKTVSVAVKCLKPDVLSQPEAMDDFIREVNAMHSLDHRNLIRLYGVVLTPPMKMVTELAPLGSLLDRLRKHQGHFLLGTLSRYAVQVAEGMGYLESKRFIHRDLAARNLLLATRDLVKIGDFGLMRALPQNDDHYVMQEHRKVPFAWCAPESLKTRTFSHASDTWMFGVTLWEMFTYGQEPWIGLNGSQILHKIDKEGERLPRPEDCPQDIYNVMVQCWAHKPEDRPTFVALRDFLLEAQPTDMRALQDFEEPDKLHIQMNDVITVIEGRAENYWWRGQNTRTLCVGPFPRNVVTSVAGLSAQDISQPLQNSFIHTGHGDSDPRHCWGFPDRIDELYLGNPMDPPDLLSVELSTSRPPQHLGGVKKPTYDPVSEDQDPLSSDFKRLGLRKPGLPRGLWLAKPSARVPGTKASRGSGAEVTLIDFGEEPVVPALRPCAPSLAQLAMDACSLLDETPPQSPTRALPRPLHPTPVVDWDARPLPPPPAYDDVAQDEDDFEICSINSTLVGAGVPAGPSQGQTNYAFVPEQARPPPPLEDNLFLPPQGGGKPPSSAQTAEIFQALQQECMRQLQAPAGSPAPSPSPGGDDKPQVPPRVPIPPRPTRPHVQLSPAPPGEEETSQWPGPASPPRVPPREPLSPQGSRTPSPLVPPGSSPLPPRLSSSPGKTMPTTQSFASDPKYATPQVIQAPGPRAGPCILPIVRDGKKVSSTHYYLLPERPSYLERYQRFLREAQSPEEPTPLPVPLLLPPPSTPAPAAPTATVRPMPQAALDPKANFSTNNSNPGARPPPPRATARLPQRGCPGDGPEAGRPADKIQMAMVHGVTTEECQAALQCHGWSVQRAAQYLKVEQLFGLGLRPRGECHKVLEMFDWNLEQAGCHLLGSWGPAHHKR

Activated CDC42 kinase 1 [2] = target: T1, Activated CDC42 kinase 1; assay: Inhibition of ACK1 kinase (unknown origin)
Target sequence in this assay (Q07912 whole entry): as the sequence (Q07912 whole entry, looked up) above

[3] = target: Tyrosine-protein kinase Lck (Homo sapiens, UniProt P06239)
Chain of Tyrosine-protein kinase Lck (P06239 whole entry): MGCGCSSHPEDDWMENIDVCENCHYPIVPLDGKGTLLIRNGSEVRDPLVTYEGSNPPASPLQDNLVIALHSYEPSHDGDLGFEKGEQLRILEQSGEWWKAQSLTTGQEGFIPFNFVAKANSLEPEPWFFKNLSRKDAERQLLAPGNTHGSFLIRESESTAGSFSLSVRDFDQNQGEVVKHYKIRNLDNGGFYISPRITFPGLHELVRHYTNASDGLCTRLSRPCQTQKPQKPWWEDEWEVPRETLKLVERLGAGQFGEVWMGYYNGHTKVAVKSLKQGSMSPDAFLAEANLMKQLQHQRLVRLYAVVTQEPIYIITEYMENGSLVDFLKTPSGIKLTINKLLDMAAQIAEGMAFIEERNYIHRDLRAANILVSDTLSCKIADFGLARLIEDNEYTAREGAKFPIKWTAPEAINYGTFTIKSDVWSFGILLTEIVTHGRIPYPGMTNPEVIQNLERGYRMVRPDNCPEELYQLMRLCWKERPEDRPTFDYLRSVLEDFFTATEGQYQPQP

[4] = Solubility in PBS with 10% DMSO; format: physicochemical; conditions: buffer
cells = conditions: Homo sapiens, VCaP, 72 h
LAPC4 = assay: Anticancer activity against human LAPC4 cells assessed as inhibition of cell growth up to 10 uM after 72 hrs by trypan blue exclusion assay; format: functional, cell-based
Plasma = assay: Half life in human plasma; format: ADME, cell-free

Row | SMILES | inhibition (Activated CDC42 kinase 1 [1]) [%] | further results
1 | O=C(O)CCc1ccc(Nc2ncc(Br)c(NCC3CCCO3)n2)cc1 (stereo unspecified) | 74.5 | 
2 | O=C(O)C1CCN(c2ccc(Nc3ncc(Br)c(NCC4CCCO4)n3)cc2)CC1 (racemic) | 85 | 
3 | COc1ccc(Nc2ncc(Br)c(NCC3CCCO3)n2)cc1 (stereo unspecified) | 67 | 
4 | CN(C)CCOc1ccc(-c2oc3ncnc(NCC4SCCS4)c3c2-c2ccccc2)cc1 |  | Ki (Activated CDC42 kinase 1 [2]): 0.3 nM; Ki [3]: 138 nM
5 | O=C(Nc1c(F)cccc1Cl)c1cnc(Nc2ccc(O)c(F)c2)nc1NCC1CCCO1 (stereo unspecified) | 66 | 
6 | O=C(Nc1c(F)cccc1Cl)c1cnc(Nc2ccc(N3CCOCC3)cc2)nc1NCC1CCCO1 (racemic) | 82 | 
7 | O=C(O)C1CCN(c2ccc(Nc3ncc(Cl)c(NCC4CCCO4)n3)cc2)CC1 (racemic) | 93 | 
8 | COc1ccc(Nc2ncc(C(=O)Nc3c(F)cccc3Cl)c(NCC3CCCO3)n2)cc1 (racemic) | 68 | 
9 | O=C(O)Cc1ccc(Nc2ncc(Br)c(NCC3CCCO3)n2)cc1 (stereo unspecified) | 61 | 
10 | O=C(O)CCC(=O)N1CCN(c2ccc(Nc3ncc(Br)c(NCC4CCCO4)n3)cc2)CC1 (stereo unspecified) | 92 | 
11 | Oc1ccc(Nc2ncc(Cl)c(NCC3CCCO3)n2)cc1 (stereo unspecified) | 65 | 
12 | CN1CCN(c2ccc(Nc3nccc(NCC4CCCO4)n3)cc2)CC1 (stereo unspecified) | 16 | 
13 | O=C(Nc1c(F)cccc1Cl)c1cnc(Nc2ccc(O)cc2)nc1NCC1CCCO1 (racemic) | 85 | 
14 | CN1CCN(c2ccc(Nc3ncc(Cl)c(NC[C@@H]4CCCO4)n3)cc2)CC1 |  | IC50 (Activated CDC42 kinase 1 [2]): 82 nM; solubility [4]: 900 µg/mL (≈ 2230 µM); IC50 (cells): 4000 nM; inhibition (LAPC4): Active; t1/2 (Plasma): > 6 h
15 | Oc1ccc(Nc2ncc(Br)c(NCC3CCCO3)n2)cc1F (stereo unspecified) | 76 | 
16 | O=C(O)CCc1ccc(Nc2ncc(Cl)c(NCC3CCCO3)n2)cc1 (stereo unspecified) | 74 | 
